Experimental findings from patent publication US9540400B2, “Compounds as diacylglycerol acyltransferase inhibitors” (GlaxoSmithKline Intellectual Property (No. 2) Limited, priority 2011, dated 2017) are described below.

The target in the assay is T1, Human DGAT1 (Homo sapiens, UniProt O75907).
T1 construct: made in house; host or cells: Sf9 insect cells (baculovirus); microsomes
T1 sequence (O75907 1-488): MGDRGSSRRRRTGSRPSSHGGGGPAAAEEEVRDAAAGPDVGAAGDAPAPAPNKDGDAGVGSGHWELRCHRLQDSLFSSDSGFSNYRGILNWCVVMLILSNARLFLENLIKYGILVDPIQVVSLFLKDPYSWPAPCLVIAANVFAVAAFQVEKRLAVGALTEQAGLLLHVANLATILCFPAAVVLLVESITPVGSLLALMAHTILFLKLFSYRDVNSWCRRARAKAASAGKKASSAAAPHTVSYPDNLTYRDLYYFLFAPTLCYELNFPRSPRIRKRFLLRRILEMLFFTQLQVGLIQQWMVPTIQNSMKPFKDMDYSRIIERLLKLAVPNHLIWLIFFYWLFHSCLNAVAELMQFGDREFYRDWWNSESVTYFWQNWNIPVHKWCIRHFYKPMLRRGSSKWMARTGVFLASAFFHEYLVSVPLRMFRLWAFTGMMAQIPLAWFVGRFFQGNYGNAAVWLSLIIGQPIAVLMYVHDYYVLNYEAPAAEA
The experiment in a line: hDGAT1 lipid extraction (LE) assay, inhibition of triacylglycerol product formation. It is filed as biochemical. The note with it: human DGAT1 microsomes from Sf9 cells; radiolabelled tridecanoylglycerol extraction. As to the method:
Human DGAT1 was expressed in Sf9 insect cells using a baculovirus expression system. Microsomes were prepared and used as enzyme for in vitro inhibition testing in either of two formats measuring production of coenzyme A or tridecanoylglycerol product, respectively. All steps were performed at 21-23° C. All data for DGAT1 inhibition by test compounds were collected under conditions where product formation was linear with reaction time.
For inhibition of triacylglycerol product formation, 11 uL reactions were run in white Polyplate-384 (PerkinElmer6007300) starting with a 30 minute pre-reaction incubation of 5 uL of 2.2× enzyme and 1 uL of 100% DMSO containing test compound or control compound, {4-[4-(4-amino-7,7-dimethyl-7H-pyrimido[4,5-b][1,4]oxazin-6-yl)phenyl]cyclohexyl}acetic acid. Some assays were performed with inclusion of didecanoylglycerol in the pre-reaction incubation of test compounds and enzyme. Reactions were initiated after 30 minute pre-reaction incubation via addition of 5 uL of 2.2× substrate. Final reaction conditions consisted of 50 mM HEPES pH 7.5, 2 mM MgCl2, 1 mM CHAPS, 25 uM didecanoylglycerol, 0.5 uM decanoyl-CoA, 0.3 nCi/uL [^14C]-decanoyl-CoA or 0.5 nCi/uL [^3H]-decanoyl-CoA, 0.05-4 ug/mL microsomal protein, and 1% DMSO. Following 60 minute reaction incubation, reactions were stopped with 40 uL of 45% isopropanol and 50 mM sodium carbonate in water and mixed. Extraction of tridecanoylglycerol product was accomplished via addition of 30 uL Microscint-E (Perkin Elmer) and 2 hours of incubation (sealed). Plates were read on a Microbeta Microplate reader. Inhibition was normalized to controls containing DMSO or 10 uM {4-[4-(4-amino-7,7-dimethyl-7H-pyrimido[4,5-b][1,4]oxazin-6-yl)phenyl]cyclohexyl}acetic acid. IC50s were fitted using GraphPad Prism to a sigmoidal dose response.

Usually IC50 stands for the concentration at which inhibition is half-maximal. Low readings indicate greater potency in that assay, high ones weaker potency in that assay. `Nc1ncnc2c1C(=O)N(c1cnc3c(ccn3-c3cccc(C(F)(F)F)c3)c1)CCO2` [Example 81, 4-amino-6-{1-[3-(trifluoromethyl)phenyl]-1H-pyrrolo[2,3-b]pyridin-5-yl}-5H,6H,7H,8H-pyrimido[5,4-f][1,4]oxazepin-5-one] showed an IC50 of 2.1 nM.
The result for `Nc1ncnc2c1C(=O)N(c1ccc3ncn(Cc4ccccc4)c(=O)c3c1)CCO2` [Example 97, 4-Amino-6-(3-benzyl-4-oxo-3,4-dihydroquinazolin-6-yl)-7,8-dihydropyrimido[5,4-f][1,4]oxazepin-5(6H)-one] reads 201 nM.
The result for `Nc1ncnc2c1C(=O)N(c1ccc3nc[nH]c(=O)c3c1)CCO2` [Example 98, 4-Amino-6-(4-oxo-3,4-dihydroquinazolin-6-yl)-7,8-dihydropyrimido[5,4-f][1,4]oxazepin-5(6H)-one] reads 623 nM.
